Laboratory results reported in patent US7138361B2, “Herbicidal heterocycles” (E. I. du Pont de Nemours and Company, priority 2000, dated 2006).

Experiments:
Format in all cases: in vivo
Nightshade = experiment: Test C preemergence
Sunflower [1] = experiment: Test C preemergence; settings: Rate 125 g/ha; scale 0 to 100, 0 no effect, 100 complete control
[2] = system: Surinam grass (Brachiaria decumbens); experiment: Test C preemergence
Outline: (§1)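 Herbicidal effect is a visual 0–100 score (100 = complete control) assigned versus untreated plants, 12 to 14 days after spraying in the greenhouse. Test compounds were applied in a non-phytotoxic, surfactant-containing solvent.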

[3] = system: bermudagrass (Cynodon dactylon); experiment: Test C preemergence
Outline: as §1

[4] = system: cocklebur (Xanthium strumarium); experiment: Test C preemergence
Outline: as §1

corn (Zea mays) = experiment: Test C preemergence
Outline: as §1

[5] = system: crabgrass (Digitaria sanguinalis); experiment: Test C preemergence
Outline: as §1

[6] = system: giant foxtail (Setaria faberii); experiment: Test C preemergence
Outline: as §1

[7] = system: goosegrass (Eleusine indica); experiment: Test C preemergence
Outline: as §1

[8] = system: johnsongrass (Sorghum halepense); experiment: Test C preemergence
Outline: as §1

kochia (Kochia scoparia) = experiment: Test C preemergence
Outline: as §1

[9] = system: lambsquarters (Chenopodium album); experiment: Test C preemergence
Outline: as §1

[10] = system: morningglory (Ipomoea hederacea); experiment: Test C preemergence
Outline: as §1

[11] = system: pigweed (Amaranthus retroflexus); experiment: Test C preemergence
Outline: as §1

soybean (Glycine max) = experiment: Test C preemergence
Outline: as §1

[12] = system: velvetleaf (Abutilon theophrasti); experiment: Test C preemergence
Outline: as §1

[13] = system: woolly cupgrass (Eriochloa villosa); experiment: Test C preemergence
Outline: as §1

[14] = system: yellow nutsedge (Cyperus esculentus); experiment: Test C preemergence
Outline: as §1

[15] = system: barnyardgrass (Echinochloa crus-galli); experiment: Test C flooded paddy test; settings: for Barnyardgrass plant response rating: Flooded Paddy, scale 0 to 100, 0 no effect, 100 complete control; for Plant response rating, Barnyardgrass: flooded paddy test, scale 0 to 100 (0 no effect, 100 complete control)
Outline: (§2)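 Flooded paddy, 2-leaf stage at treatment. Readout: visual % control vs untreated, 0–100, at 12–14 d in greenhouse.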

[16] = system: duck salad (Heteranthera limosa); experiment: Test C flooded paddy test; settings: for Ducksalad plant response rating: Flooded Paddy, scale 0 to 100, 0 no effect, 100 complete control; for Plant response rating, Ducksalad: flooded paddy test, scale 0 to 100 (0 no effect, 100 complete control)
Outline: as §2

[17] = system: smallflower flatsedge (Cyperus difformis); experiment: Test C flooded paddy test; settings: for Flatsedge plant response rating: Flooded Paddy, scale 0 to 100, 0 no effect, 100 complete control; for Plant response rating, Flatsedge: flooded paddy test, scale 0 to 100 (0 no effect, 100 complete control)
Outline: as §2

Sunflower [18] = experiment: Test C preemergence; settings: Rate 500 g/ha, visual evaluation after 12 to 14 days
[19] = Rate 125 g/ha, scale 0 to 100, 0 no effect, 100 complete control
[20] = preemergence, Rate 62 g/ha, scale 0 to 100
[21] = preemergence, Rate 500 g/ha, visual evaluation after 12 to 14 days
[22] = preemergence, Rate 250 g/ha, scale 0 to 100, 0 no effect, 100 complete control

CCCC(C)c1ccn(C2OCN(c3cccc(C(F)(F)F)c3)C2=O)n1 (stereo not drawn) [Compound 89]
Plant response rating, Nightshade (Nightshade; Rate 62 g/ha, scale 0 to 100): 0
Plant response rating, Nightshade (Nightshade; [19]): 0
Plant response rating, Nightshade (Nightshade; Rate 250 g/ha, scale 0 to 100, 0 no effect, 100 complete control): 0
Plant response rating, Sunflower (Sunflower [1]): 0
Plant response rating, Surinam grass [2, 19]: 10
Plant response rating, Surinam grass [2, 20]: 0
Plant response rating (0 to 100), Surinam grass [2, 21]: 65
Plant response rating, Surinam grass [2, 22]: 30
Plant response rating, Bermudagrass [3, 19]: 90
Plant response rating, Bermudagrass [3, 20]: 10
Plant response rating (0 to 100 where 0 is no effect and 100 is complete control), Bermudagrass [3, 21]: 100
Plant response rating, Bermudagrass [3, 22]: 90
Plant response rating, Cocklebur [4, 19]: 0
Plant response rating, Cocklebur [4, 20]: 0
Plant response rating (0 to 100), Cocklebur [4, 21]: 10
Plant response rating, Cocklebur [4, 22]: 10
Plant response rating, Corn (corn (Zea mays); [19]): 25
Plant response rating, Corn (corn (Zea mays); [20]): 10
Plant response rating (0 to 100), Corn (corn (Zea mays); [21]): 30
Plant response rating, Corn (corn (Zea mays); [22]): 30
Plant response rating, Crabgrass [5, 19]: 100
Plant response rating, Crabgrass [5, 20]: 20
Plant response rating (0 to 100), Crabgrass [5, 21]: 100
Plant response rating, Crabgrass [5, 22]: 100
Plant response rating, Foxtail, Giant [6, 19]: 0
Plant response rating, Foxtail, Giant [6, 20]: 0
Plant response rating (0 to 100), Foxtail, Giant [6, 21]: 100
Plant response rating, Foxtail, Giant [6, 22]: 0
Plant response rating, Goosegrass [7, 19]: 100
Plant response rating, Goosegrass [7, 20]: 95
Plant response rating (0 to 100), Goosegrass [7, 21]: 100
Plant response rating, Goosegrass [7, 22]: 100
Plant response rating, Johnsongrass [8, 19]: 70
Plant response rating, Johnsongrass [8, 20]: 50
Plant response rating (0 to 100), Johnsongrass [8, 21]: 100
Plant response rating, Johnsongrass [8, 22]: 70
Plant response rating, Kochia (kochia (Kochia scoparia); [19]): 70
Plant response rating, Kochia (kochia (Kochia scoparia); [20]): 20
Plant response rating (0 to 100), Kochia (kochia (Kochia scoparia); [21]): 100
Plant response rating, Kochia (kochia (Kochia scoparia); [22]): 90
Plant response rating, Lambsquarters [9, 19]: 100
Plant response rating, Lambsquarters [9, 20]: 80
Plant response rating (0 to 100), Lambsquarters [9, 21]: 100
Plant response rating, Lambsquarters [9, 22]: 100
Plant response rating, Morningglory [10, 19]: 0
Plant response rating, Morningglory [10, 20]: 0
Plant response rating (0 to 100), Morningglory [10, 21]: 0
Plant response rating, Morningglory [10, 22]: 0
Plant response rating, Pigweed [11, 19]: 0
Plant response rating, Pigweed [11, 20]: 0
Plant response rating (0 to 100), Pigweed [11, 21]: 100
Plant response rating, Pigweed [11, 22]: 50
Plant response rating, Soybean (soybean (Glycine max); [19]): 0
Plant response rating, Soybean (soybean (Glycine max); [20]): 0
Plant response rating (0 to 100), Soybean (soybean (Glycine max); [21]): 30
Plant response rating, Soybean (soybean (Glycine max); [22]): 0
Plant response rating, Velvetleaf [12, 19]: 0
Plant response rating, Velvetleaf [12, 20]: 0
Plant response rating (0 to 100), Velvetleaf [12, 21]: 10
Plant response rating, Velvetleaf [12, 22]: 0
Plant response rating, Cupgrass, Woolly [13, 19]: 0
Plant response rating, Cupgrass, Woolly [13, 20]: 0
Plant response rating (0 to 100), Cupgrass, Woolly [13, 21]: 70
Plant response rating, Cupgrass, Woolly [13, 22]: 40
Plant response rating, Nutsedge [14, 19]: 0
Plant response rating, Nutsedge [14, 20]: 0
Plant response rating (0 to 100), Nutsedge [14, 21]: 0
Plant response rating, Nutsedge [14, 22]: 0
Barnyardgrass plant response rating ([15]; Rate 250 g/ha): 100
Barnyardgrass plant response rating ([15]; Rate 500 g/ha): 100
Plant response rating, Barnyardgrass ([15]; Rate 62 g/ha): 20
Plant response rating, Barnyardgrass ([15]; Rate 125 g/ha): 70
Ducksalad plant response rating ([16]; Rate 250 g/ha): 40
Ducksalad plant response rating ([16]; Rate 500 g/ha): 90
Plant response rating, Ducksalad ([16]; Rate 62 g/ha): 0
Plant response rating, Ducksalad ([16]; Rate 125 g/ha): 0
Flatsedge plant response rating ([17]; Rate 250 g/ha): 90
Flatsedge plant response rating ([17]; Rate 500 g/ha): 100
Plant response rating, Flatsedge ([17]; Rate 62 g/ha): 80
Plant response rating, Flatsedge ([17]; Rate 125 g/ha): 90
Plant response rating (0 to 100), Sunflower (Sunflower [18]): 60
